Columns and labels:
α-DNP antibody = experiment: In vivo depletion of α-DNP antibody from serum in mice (ELISA); conditions: for serum α-DNP antibody levels compared to PBS: FIG. 94; for α-DNP antibody depleted from serum 24 hours after a single dose: vehicle control 24%
Protocol: FIG. 94 illustrates that serum levels of α-DNP antibody decrease more rapidly following repeated treatment with DNP-GN3. Serum antibody levels were measured using an ELISA assay. Each experimental group contained three mice. Statistical differences in experiments involving in vivo depletion of α-DNP antibody were assessed by repeated measures two-way ANOVA with Tukey's tests for post-hoc comparison of simple effects between each of the treatment groups and PBS.
Single doses of DNP-GN3 were also found to be efficacious at mediating α-DNP antibody depletion, albeit less effectively than daily dosing (FIG. 96). […] Therefore, it was concluded that DNP-GN3 is able to mediate the depletion of a monoclonal antibody from serum, and functions across a wide range of target protein concentrations and dosing regimens.
DNP-GN3 was also found to be efficacious in depleting polyclonal α-DNP antibody from serum collected from mice immunized with DNP-keyhole limpet haemocyanin (KLH) (FIG. 97). […] Thus, the small molecule DNP-GN3 is not restricted in function to only monoclonal mouse antibodies, but is also effective at removing polyclonal α-DNP antibodies from circulation in mice.

PC3 cells = experiment: PC3 human prostate cancer cell tumor model in mice; format: in vivo; conditions: for tumor growth: FIG. 138
Protocol: The ability of MIF-GN3 to mediate the depletion of MIF in a therapeutically relevant disease model was investigated. […] An experiment was conducted to determine whether the bifunctional molecule MIF-GN3 can deplete sufficient human MIF from serum to slow PC3 tumor growth. Mice were injected with an aliquot of PC3 cells, and the size of the resultant tumors as well as the levels of human MIF in serum were monitored over five weeks. […] Five weeks after the initial PC3 cell injection, the first of the mice reached maximal tumor size ([…]) and was sacrificed (FIG. 138). […] The decrease in human MIF levels mediated by MIF-GN3 is consistent with a mechanism of action in which MIF-GN3 mediates the depletion and degradation of circulating MIF protein. While the α-MIF antibody would not necessarily be expected to decrease the levels of human MIF, it is possible that the antibody mediates MIF neutralization in a manner which masks its signal as determined by ELISA. Alternatively, the α-MIF antibody may mediate depletion or degradation of huMIF by some endocytic mechanism. Another possible explanation is that the α-MIF antibody decrease serum levels of active human MIF to such an extent at early time points that PC3 cells proliferate much more slowly, and therefore fewer cells are actively secreting human MIF.
Mice were sacrificed when their tumor volumes reached 1000 mm^3. […] At this same time point, less than 25% of the mice in any other arm had survived.

HepG2 cells = experiment: DNP-GN3-mediated endocytosis of fluorescently labeled α-DNP antibody by adherent HepG2 cells; format: cell-based, human; conditions: six and twelve hours; FIG. 87A-87B
human MIF = target: T1, human MIF (Homo sapiens, UniProt P14174); experiment: Depletion of injected recombinant human MIF from serum in mice; format: in vivo; design: injected into mice; conditions: for depletion of human MIF protein from serum: 30 minutes, FIG. 135
T1 sequence (P14174 2-115 limits assumed): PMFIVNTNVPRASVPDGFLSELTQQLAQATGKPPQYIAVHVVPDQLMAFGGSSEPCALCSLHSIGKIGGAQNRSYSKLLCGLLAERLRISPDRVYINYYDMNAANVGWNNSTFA
Protocol: In vivo human MIF depletion experiments were undertaken to determine whether MIF-GN3 can mediate the depletion of injected recombinant human MIF from serum in mice. Mice were injected with five μg of the human MIF protein. In this experiment, one group of mice was also injected with a single 10 mpk dose of MLF-GN3 along with human MIF protein. It was observed that after four hours, the average level of human MIF in serum in the PBS-treated mice was 1.76 ng/mL (FIG. 134). In mice treated with 10 mpk MIF-GN3, however, the concentration of human MIF in serum was 0.68 ng/mL. One day after the initial injection, human MIF levels had reached background levels for both conditions. […] It was hypothesized that, due to the short half-life of human MIF in serum, investigating human MIF levels at earlier time points may be more informative.
Next, an experiment was performed to determine whether MIF-GN3 could enhance MIF clearance at time points earlier than four hours. Mice were coinjected with recombinant human MIF and 10 mpk MIF-GN3 via either i.p. or i.v. routes. For the PBS control arms, human MIF was injected with PBS. It was observed that in the absence of MIF-GN3, there was a spike in huMIF levels in circulation after 30 minutes (FIG. 135). In the presence of MIF-GN3, however, levels of MIF protein remained low at 30 minutes and no spike in its concentration was observed. By two hours, the levels of human MIF in circulation decreased to background levels.
In a further experiment, whether an inhibitor of the MIF protein (3w) is able to mediate the protein's depletion from serum was determined. A bifunctional molecule that mediates the depletion of α-DNP antibody from serum was also assayed as a negative control. Neither of these molecules was expected to mediate the formation of a ternary complex between human MIF protein and ASGPR.

[1] = MIF-GN3 at 10 mpk, control arms DNP-GN3 and 3w

Compound | serum α-DNP antibody levels compared to PBS (α-DNP antibody; 200 μg monoclonal mouse IgG2 α-DNP antibody, daily and twice-daily 1 mpk, 21 days, nude mice) | α-DNP antibody depleted from serum 24 hours after a single dose (α-DNP antibody; 1 mpk, FIG. 96) [%] | α-DNP antibody depleted from serum 24 hours after a single dose (α-DNP antibody; 10 mpk, FIG. 96) [%] | α-DNP antibody depletion after a single dose (α-DNP antibody; 100 mpk, FIG. 96) | degradation of injected anti-DNP IgG antibodies in mouse serum (α-DNP antibody; i.p. injection, FIG. 79A) | serum α-DNP antibody levels compared to PBS (α-DNP antibody; initial antibody dose of 500 μg, daily treatment) | depletion of polyclonal α-DNP antibody from serum compared to PBS (α-DNP antibody; mice immunized with DNP-KLH, daily treatment, each time point, FIG. 97) | tumor growth (PC3 cells; [1]) | intracellular fluorescence of adherent HepG2 cells (HepG2 cells) | human MIF concentration in serum compared to the PBS control (human MIF; control molecules injected along with human MIF, FIG. 136) | levels of human MIF protein in the serum (PC3 cells; MIF-GN3 1 mpk, α-MIF antibody arm, FIG. 139) | tumor growth (PC3 cells; MIF-GN3 at a dose of 1 mpk, α-MIF antibody arm) | survival (PC3 cells; eight weeks after the initial PC3 cell injection, MIF-GN3 1 mpk, FIG. 140) [%] | depletion of human MIF protein from serum (human MIF; 10 mpk coinjected i.p.) | depletion of human MIF protein from serum (human MIF; 10 mpk coinjected i.v.) | human MIF levels in serum compared to the PBS control (human MIF; one mpk, 40 and 60 minute time points, FIG. 136) | concentration of human MIF in serum (human MIF; single 10 mpk dose with five μg human MIF, after four hours, PBS-treated 1.76 ng/mL, difference not significant, FIG. 134) [ng/mL] | human MIF levels in serum compared to the PBS control (human MIF; ten mpk, 40 and 60 minutes, FIG. 136)
CC(=O)NC1C(OCCOCCOCCNC(=O)CCOCC(COCCC(=O)NCCOCCOCCOC2OC(CO)C(O)C(O)C2NC(C)=O)(COCCC(=O)NCCOCCOCCOC2OC(CO)C(O)C(O)C2NC(C)=O)NC(=O)CNC(=O)COCCOCCOCCNc2ccc([N+](=O)[O-])cc2[N+](=O)[O-])OC(CO)C(O)C1O (stereo not shown) [DNP-GN3] | significantly reduced | 52 | 34 | Significant depletion | can induce degradation | significant decrease | significantly more polyclonal α-DNP antibody was removed | not found to decrease tumor growth | dependent on the concentration of both DNP-GN3 and α-DNP antibody | no significant decreases |  |  |  |  |  |  |  | 
CC(=O)N[C@H]1[C@H](OCCOCCOCCNC(=O)CCOCC(COCCC(=O)NCCOCCOCCO[C@@H]2O[C@H](CO)[C@H](O)[C@H](O)[C@H]2NC(C)=O)(COCCC(=O)NCCOCCOCCO[C@@H]2O[C@H](CO)[C@H](O)[C@H](O)[C@H]2NC(C)=O)NC(=O)CNC(=O)CCCOc2ccc3nc(-c4cn(-c5ccc(O)c(F)c5)nn4)ccc3c2)O[C@H](CO)[C@H](O)[C@@H]1O [MIF-GN3] |  |  |  |  |  |  |  | not found to decrease tumor growth |  |  | decreased levels | delay in tumor growth | 80 | significant depletion | significant depletion | significant decrease | 0.68 | significant decreases

From patent publication US20250269043A1, “TARGETED BIFUNCTIONAL DEGRADERS” (YALE UNIVERSITY, priority 2019, published 2025)
